Legend:
Format in all cases: in vivo, rat
Male Wistar rats [1] = experiment: Passive avoidance test (long term memory), MK-801 induced memory loss; conditions: retention test 24 h later
Description: (§1) Male Wistar rats were purchased from Taconic, Denmark. Animal weight was close to 300 g. The animals were singly housed. Food and water was available ad libitum.
In order to test long term memory, a passive avoidance apparatus was used. The passive avoidance apparatus consist of 2 compartments: a white compartment and a black compartment, which are separated by guillotine doors. There is a lamp hanging 10 cm above the white compartment and there is a lid covering the black compartment. The black compartment contains a stainless steel grid floor.
The test was performed in the lab where the rats normally live, and all the rats were present in the room all the time during the experiment. The apparatus was placed a little bit above the floor on 2 cages. The electrical current strength was adjusted to 0.36 mA and the duration was 5 sec. […] All the rats are weighted one day before the experiment, the concentration of MK-801 per mean body weight is calculated and the dilutions are prepared
The rats are given subcutaneous injection of either vehicle (n=4), 0.1 mg/kg MK-801 (n=8) or 0.1 mg/kg MK-801 and etomoxir 1 mg/kg (1 mg/ml etomoxir ester dilution in olive oil, n=10) 1 hour before the training (to avoid the MK-801 induced hyperactivity). […] After 20 sec the doors are lifted and the time to enter the black compartment is measured. […]

Male Wistar rats [2] = experiment: Chronic mild stress (CMS) model of depression, sucrose consumption test; conditions: 4 mg/kg etomoxir in oil i.p. daily
Description: For a prolonged period rats are submitted to a succession of mild stressors. Consequently rats enter a depression-like state (anhedoina), however, upon concomitant treatment with antidepressants a fraction of rats recovers over time (Jayatissa et al., 2006). Time point of onset of antidepressant action correlates well to therapeutic action in the clinic and also drug efficacy, measured as a reduction in number of rats resistant to drug treatment, is addressed in the model. Male Wistar rats were purchased from Taconic, Denmark. Animal weight was close to 200 g when adaptation for sucrose consumption was initiated, and approximately 350 g at the start of stress regime. The animals were singly housed, except when grouping was applied as a stress parameter. Food and water was available ad libitum except when food or/and water deprivation was applied as a stress parameter. The standard 12-h light/dark cycle was only changed in course of stress regime. The animals were first trained to consume a palatable sucrose solution (1.5%). The training lasted 5 weeks. In this period the sucrose test was made twice a week during the first 3 weeks and once a week during the last two weeks. […] Percentage well being is calculated as follows: Test=Average Sucrose consumption animals in test group Control=Average Sucrose used animal control group Percentage well being=(Test/control)×100%

Male Wistar rats [3] = experiment: Y-maze short term memory test (spontaneous alternation), MK-801 induced memory loss
Experimental: as §1
Spontaneous alternation. A Y-maze was used to assess (without food deprivation or other aversive procedures) the normal navigation behaviors of rodents. All arm entries are sequentially scored so that the total number of arm entries, as well as the sequence of entries, are recorded. Data are analyzed to determine the number of arm entries without repetition.
On the day of testing, the rats are given subcutaneous injection of either vehicle (n=9), 0.1 mg/kg MK-801 (n=8) or 0.1 mg/kg MK-801 (also known as Dizocilpine) and the CPT-1 inhibitor Etomoxir 1 mg/kg (1 mg/ml etomoxir ester dilution in olive oil, n=5) 1 hour before the testing (to avoid the MK-801 induced hyperactivity).

## CCOC(=O)C1(CCCCCCOc2ccc(Cl)cc2)CO1 (centres unmarked) [Etomoxir, 2-(6-(4-chlorophenoxy)hexyl)oxirane-2-carboxylic acid ethyl ester]
Male Wistar rats [1]; one subcutaneous injection, etomoxir 1 mg/kg with 0.1 mg/kg MK-801, 1 hour before training, n=10, FIG. 3
  animals with restored long term memory: 40%
Male Wistar rats [2]; stressed rats n=20, FIG. 6
  animals responding to the treatment (at least 90% of pre-stress sucrose consumption): about 70%
Male Wistar rats [2]; stressed rats, earliest time point measured, FIG. 5
  time of treatment until animals responded like normal non-depressed animals (percentage well being, sucrose consumption): ≤ 1 week
Male Wistar rats [3]; Etomoxir 1 mg/kg s.c. with 0.1 mg/kg MK-801, 1 hour before testing
  Y-maze scores of the animals with nearly perfect memory: 92-100%
Male Wistar rats [3]; Etomoxir 1 mg/kg s.c. with 0.1 mg/kg MK-801, 1 hour before testing, n=5
  animals with nearly perfect memory: Sixty
Male Wistar rats [3]; one subcutaneous injection, Etomoxir 1 mg/kg with 0.1 mg/kg MK-801, 1 hour before testing, FIG. 2
  effect on the induced loss of short term memory: restore the loss of short term memory

## C[C@]12N[C@H](Cc3ccccc31)c1ccccc12 [MK-801]
Male Wistar rats [1]; 0.1 mg/kg MK-801 s.c. 1 hour before training, n=8
  animals with measurable long term memory: None
Male Wistar rats [3]; 0.1 mg/kg MK-801 + vehicle s.c., 1 hour before testing, n=8
  highest Y-maze score in the group: 66%

— patent US8741949B2, “Inhibitors of carnitin-palmitoyl-tranferase-1 for the treatment and prevention of disorders caused by delipidation of neural tissue” (Meta-IQ ApS, priority 2008, dated 2014)
